Consider four compounds from patent publication EP3046573B1, “AMYLIN ANALOGUES” (Zealand Pharma A/S, priority 2013, dated 2015).

Like-named read-outs stand apart in the source and are kept apart here. Numbered stars: 1 amine (or outer) side, 2 acyl side, 3 side chain; on linkers, the order of the positions; unused ones are H or OH. Bridge positions count the residues as written; N and C are the ends. Square brackets hold non-standard residues; d marks the D form. Peptide text beside a SMILES is read from it. * marks the point of attachment. C20 diacid = O=C(O)CCCCCCCCCCCCCCCCCCC(=O)*; γGlu = O=C(O)[C@H](CCC(=O)[*:2])N[*:1]; NMeI = CC[C@H](C)[C@H](NC)C(=O)O; Sar = CNCC(=O)O

For assay [1], the target named is T1, human amylin receptor 3 (hAMYR3) consisting of hCTR2 co-expressed with human Receptor Activity Modifying Protein 3 (hRAMP3) (Homo sapiens, UniProt O60896+P30988).
T1 construct: expressed in transfected cells
T1 sequence (P30988 25-474): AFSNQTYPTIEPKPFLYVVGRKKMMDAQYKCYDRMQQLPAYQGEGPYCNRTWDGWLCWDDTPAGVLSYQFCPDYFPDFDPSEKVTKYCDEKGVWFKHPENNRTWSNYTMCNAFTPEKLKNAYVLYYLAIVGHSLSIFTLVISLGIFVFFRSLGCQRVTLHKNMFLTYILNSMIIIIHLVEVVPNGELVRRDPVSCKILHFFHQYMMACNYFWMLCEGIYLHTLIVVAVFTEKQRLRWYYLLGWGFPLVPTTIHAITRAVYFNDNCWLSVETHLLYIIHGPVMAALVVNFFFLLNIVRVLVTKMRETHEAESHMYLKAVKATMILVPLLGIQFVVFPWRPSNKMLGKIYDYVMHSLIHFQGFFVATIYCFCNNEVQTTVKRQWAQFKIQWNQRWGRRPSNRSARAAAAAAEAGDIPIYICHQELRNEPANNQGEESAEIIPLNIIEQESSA
T1 sequence (O60896 24-148 partner): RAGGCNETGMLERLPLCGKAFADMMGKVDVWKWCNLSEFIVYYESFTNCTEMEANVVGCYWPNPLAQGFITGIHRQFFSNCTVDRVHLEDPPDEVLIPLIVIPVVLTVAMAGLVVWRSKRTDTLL
The experiment in a line: hAMYR3 assay: induction of cAMP (AlphaScreen cAMP Assay kit) in COS7 cells expressing hAMYR3. In kind it is cell-based. From the text: The cell line COS7, originating from African Green Monkey kidney fibroblast cells, was used for establishment of the stable cell lines described below. The COS7 cellular background was used due to it being RAMP naive, and as such it provides the best available system for testing of the monomeric hCTR and different heterodimeric amylin receptor subtypes functionally generated by introduction of the individual RAMPs.
A cell line expressing the human amylin receptor 3 (hAMYR3) was generated in the COS7 cellular background as stable clones. In brief, hCTR2 (GI:4502547) and hRAMP3 (GI:118572586) were amplified by PCR using primers encoding terminal restriction sites for subcloning. The 5'-end primers additionally encoded a near Kozak consensus sequence to ensure efficient translation. The fidelity of the DNA encoding the receptor was confirmed by DNA sequencing. The PCR products encoding the receptor were subcloned into a proprietary tri-cistronic mammalian expression vector with RAMP3, hCTR2 and neomycin (G418) resistance marker. The mammalian expression vector encoding the receptor was transfected into COS7 cells by a standard liposome transfection method. 48 hours post-transfection, cells were seeded for limited dilution cloning and selected with 1 mg/ml G418 in the culture medium. After 3 weeks, surviving colonies of hAMY3R-expressing cells were picked, propagated and tested in the amylin efficacy assay as described in Example 3 below. The functional generation of the amylin receptor phenotype was verified in the efficacy assay by a left-shifted efficacy response to amylin relative to monomeric calcitonin receptor, and one hAMYR3-expressing clone was chosen for compound profiling.
In vitro activity of test peptides at the hCTR2 and hAMYR3 receptors was assessed by measuring the induction of cAMP following stimulation of the receptor by pramlintide or peptides of the invention using the AlphaScreen® cAMP Assay kit from Perkin-Elmer.
Briefly, COS7 cells expressing hCTR2 (see Example 2, above) were seeded at 30-40,000 cells per well in 96-well microtiter plates coated with 0.01 % poly-L-lysine, and grown for 1 day in culture in 100 µl growth medium [DMEM, 10% FCS, Penicillin (100 IU/ml), Streptomycin (100 µg/ml)]. On the day of analysis, growth medium was removed and the cells were washed once with 200 µl Tyrode buffer [Tyrode's Salts (9.6 g/l), 10 mM HEPES, pH 7.4]. Cells were incubated in 100 µl Tyrode buffer containing increasing concentrations of test peptides, 100 µM IBMX and 0.1% casein for 15 min at 37° C. The reaction was stopped by carefully decanting off the compound/buffer medium and replacing it with lysis/detection buffer (80 µl 0.1 % w/v BSA, 5 mM HEPES, 0.3 % v/v Tween-20 in deionized water). After incubation at room temperature for 10 min., the cAMP content of the resulting cell lysate was estimated according to the AlphaScreen® cAMP Assay manufacturer's instructions. EC50 values and relative efficacy values (in %) compared to reference peptide (Pramlintide) were estimated by computer-aided curve fitting using the 4-parameter logistic (4PL) non-linear model.
The in vitro activity results (expressed as EC50 values) for peptides of the invention and for Pramlintide (reference peptide) are summarized in Table 2, below.

The target in assay [2] is T2, human calcitonin receptor (hCTR2) (Homo sapiens, UniProt P30988).
T2 construct: expressed in transfected cells
T2 sequence (P30988 25-474): T1 sequence (P30988 25-474)
The experiment in a line: hCTR2 assay: induction of cAMP (AlphaScreen cAMP Assay kit) in COS7 cells expressing hCTR2. In kind it is cell-based. A digest of the protocol: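 Peptide-induced cAMP in hCTR2-expressing COS7 cells, 15 min at 37° C with phosphodiesterase inhibitor IBMX (100 µM), detected by AlphaScreen; potency from 4PL curves.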

Where [3] appears, read: cAMP induction in COS7 cells expressing hCTR2, average of a minimum of 3 determinations, read-out: hCTR2 EC50.

On to `CC[C@H](C)[C@@H](C(=O)N[C@@H](CC(C)C)C(=O)N[C@@H](CO)C(=O)N[C@@H](CO)C(=O)N[C@H](C(=O)N[C@@H](CC(N)=O)C(=O)N[C@H](C(=O)NCC(=O)N[C@@H](CO)C(=O)N[C@@H](CC(N)=O)C(=O)N[C@H](C(=O)N[C@@H](CO)C(N)=O)[C@@H](C)O)C(C)C)[C@@H](C)O)N(C)C(=O)[C@H](C)NC(=O)CN(C)C(=O)[C@H](Cc1ccccc1)NC(=O)[C@H](CC(N)=O)NC(=O)[C@H](CC(N)=O)NC(=O)[C@H](CO)NC(=O)[C@H](CO)NC(=O)[C@H](CCCNC(=N)N)NC(=O)[C@H](Cc1c[nH]cn1)NC(=O)[C@H](CC(C)C)NC(=O)[C@H](Cc1ccccc1)NC(=O)[C@H](CCC(=O)O)NC(=O)[C@H](C)NC(=O)[C@H](CC(C)C)NC(=O)[C@H](CCCNC(=N)N)NC(=O)[C@H](CCC(N)=O)NC(=O)[C@@H](NC(=O)[C@H](C)NC(=O)[C@@H]1CSSC[C@H](NC(=O)[C@H](CCCNC(=N)N)NC(=O)CC[C@H](NC(=O)CCCCCCCCCCCCCCCCCCC(=O)O)C(=O)O)C(=O)N[C@@H](CC(N)=O)C(=O)N[C@@H]([C@@H](C)O)C(=O)N[C@@H](C)C(=O)N[C@@H]([C@@H](C)O)C(=O)N1)[C@@H](C)O` [Compound 116, [19CD]-isoGlu-RC()NTATC()ATQRLAEFLHRSSNNF-Gly(Me)-A-Ile(Me)-LSSTNVGSNTS-NH2] ({C20 diacid-γGlu}-RCNTATCATQRLAEFLHRSSNNF[Sar]A[NMeI]LSSTNVGSNTS-NH2; disulfide 2-7), for which the EC50 in assay [1] stood at 1.6 nM; in assay [2], 0.93 nM.

Turning to `CC[C@H](C)[C@@H](C(=O)N[C@@H](CC(C)C)C(=O)N[C@@H](CO)C(=O)N[C@@H](CO)C(=O)N[C@H](C(=O)N[C@@H](CC(N)=O)C(=O)N[C@H](C(=O)NCC(=O)N[C@@H](CO)C(=O)N[C@@H](CC(N)=O)C(=O)N[C@H](C(=O)N[C@H](C(N)=O)[C@@H](C)O)[C@@H](C)O)C(C)C)[C@@H](C)O)N(C)C(=O)[C@H](C)NC(=O)CN(C)C(=O)[C@H](Cc1ccccc1)NC(=O)[C@H](CC(N)=O)NC(=O)[C@H](CC(N)=O)NC(=O)[C@H](CO)NC(=O)[C@H](CO)NC(=O)[C@H](CCCNC(=N)N)NC(=O)[C@H](Cc1c[nH]cn1)NC(=O)[C@H](CC(C)C)NC(=O)[C@H](Cc1ccccc1)NC(=O)[C@H](CCC(=O)O)NC(=O)[C@H](C)NC(=O)[C@H](CC(C)C)NC(=O)[C@H](CCCNC(=N)N)NC(=O)[C@H](CCC(N)=O)NC(=O)[C@@H](NC(=O)[C@H](C)NC(=O)[C@@H]1CSSC[C@H](NC(=O)[C@H](CCCNC(=N)N)NC(=O)CC[C@H](NC(=O)CCCCCCCCCCCCCCCCCCC(=O)O)C(=O)O)C(=O)N[C@@H](CC(N)=O)C(=O)N[C@@H]([C@@H](C)O)C(=O)N[C@@H](C)C(=O)N[C@@H]([C@@H](C)O)C(=O)N1)[C@@H](C)O` [Compound 117, [19CD]-isoGlu-RC()NTATC()ATQRLAEFLHRSSNNF-Gly(Me)-A-Ile(Me)-LSSTNVGSNTT-NH2] ({C20 diacid-γGlu}-RCNTATCATQRLAEFLHRSSNNF[Sar]A[NMeI]LSSTNVGSNTT-NH2; disulfide 2-7), the concentration giving a half-maximal response (EC50) in assay [1] amounted to 8.2 nM; in assay [2] it was 0.47 nM.

With `CC[C@H](C)[C@@H](C(=O)N[C@@H](CC(C)C)C(=O)N[C@@H](CO)C(=O)N[C@@H](CO)C(=O)N[C@H](C(=O)N[C@@H](CCC(=O)O)C(=O)N[C@H](C(=O)NCC(=O)N[C@@H](CO)C(=O)N[C@@H](CCC(=O)O)C(=O)N[C@H](C(=O)N1CCC[C@H]1C(N)=O)[C@@H](C)O)C(C)C)[C@@H](C)O)N(C)C(=O)[C@H](C)NC(=O)CN(C)C(=O)[C@H](Cc1ccccc1)NC(=O)[C@H](CO)NC(=O)[C@H](CO)NC(=O)[C@H](CO)NC(=O)[C@H](CO)NC(=O)[C@H](CCCNC(=N)N)NC(=O)[C@H](Cc1c[nH]cn1)NC(=O)[C@H](CC(C)C)NC(=O)[C@H](Cc1ccccc1)NC(=O)[C@H](CCC(=O)O)NC(=O)[C@H](C)NC(=O)[C@H](CC(C)C)NC(=O)[C@H](CCCNC(=N)N)NC(=O)[C@H](CCC(N)=O)NC(=O)[C@@H](NC(=O)[C@H](C)NC(=O)[C@@H]1CSSC[C@H](NC(=O)[C@H](CCCNC(=N)N)NC(=O)CC[C@H](NC(=O)CCCCCCCCCCCCCCCCCCC(=O)O)C(=O)O)C(=O)N[C@@H](CCC(=O)O)C(=O)N[C@@H]([C@@H](C)O)C(=O)N[C@@H](C)C(=O)N[C@@H]([C@@H](C)O)C(=O)N1)[C@@H](C)O` [Compound 128, [19CD]-isoGlu-RC()ETATC()ATQRLAEFLHRSSSSF-Gly(Me)-A-Ile(Me)-LSSTEVGSETP-NH2] ({C20 diacid-γGlu}-RCETATCATQRLAEFLHRSSSSF[Sar]A[NMeI]LSSTEVGSETP-NH2; disulfide 2-7), the EC50 in assay [1] (cAMP induction in COS7 cells expressing hAMYR3, average of a minimum of 3 determinations, read-out: hAMY R3 EC50) is 0.45 nM; in assay [2] (setting [3]) it was 0.28 nM.

On to `CC[C@H](C)[C@@H](C(=O)N[C@@H](CC(C)C)C(=O)N[C@@H](CO)C(=O)N[C@@H](CO)C(=O)N[C@H](C(=O)N[C@@H](CCC(=O)O)C(=O)N[C@H](C(=O)NCC(=O)N[C@@H](CO)C(=O)N[C@@H](CCC(=O)O)C(=O)N[C@H](C(=O)N1CCC[C@H]1C(N)=O)[C@@H](C)O)C(C)C)[C@@H](C)O)N(C)C(=O)[C@H](C)NC(=O)CN(C)C(=O)[C@H](Cc1ccccc1)NC(=O)[C@H](CO)NC(=O)[C@H](CO)NC(=O)[C@H](CO)NC(=O)[C@H](CO)NC(=O)[C@H](CCCNC(=N)N)NC(=O)[C@H](Cc1c[nH]cn1)NC(=O)[C@H](CC(C)C)NC(=O)[C@H](Cc1ccccc1)NC(=O)[C@H](CCC(=O)O)NC(=O)[C@H](C)NC(=O)[C@H](CC(C)C)NC(=O)[C@H](CCCNC(=N)N)NC(=O)[C@H](CO)NC(=O)[C@@H](NC(=O)[C@H](C)NC(=O)[C@@H]1CSSC[C@H](NC(=O)[C@H](CCCNC(=N)N)NC(=O)CC[C@H](NC(=O)CCCCCCCCCCCCCCCCCCC(=O)O)C(=O)O)C(=O)N2CCC[C@H]2C(=O)N[C@@H]([C@@H](C)O)C(=O)N[C@@H](C)C(=O)N[C@@H]([C@@H](C)O)C(=O)N1)[C@@H](C)O` [Compound 140, [19CD]-isoGlu-RC()PTATC()ATSRLAEFLHRSSSSF-Gly(Me)-A-Ile(Me)-LSSTEVGSETP-NH2] ({C20 diacid-γGlu}-RCPTATCATSRLAEFLHRSSSSF[Sar]A[NMeI]LSSTEVGSETP-NH2; disulfide 2-7), for which the values for the EC50 in assay [1] and in assay [2] (setting [3]) were 0.18 nM and 0.098 nM, respectively.
